# Experiments:
# wild type E. coli = assay: Growth of wild type E. coli in the presence of quinolone (OD600); type: cell-based
# Source text: Each deletion strain was constructed by replacing the chromosomal copy of the relevant gene in a wild type E. coli strain (K-12) with a selectable antibiotic resistance gene, essentially as described, to create a precise gene deletion (Datsenko, K. A. and Wanner, B. L., “One-step inactivation of chromosomal genes in Escherichia coli K-12 using PCR products”, Proc Natl Acad Sci USA, 97, 6640-6645, […]); Baba, T., Ara, T., Okumura, Y., iki Hasegawa, M., Takai, Y., Baba, M., Oshima, T., Tomita, M., Wanner, B. and Mori, H. (2003) Systematic construction of single gene deletion mutants in Escherichia coli K-12 (in preparation) and see also the web site at ecoli.aist-nara.ac.jp/gb5/Resources/deletion/deletion.html).
# For each mutant, the ratio of growth of the mutant in the presence of a sublethal concentration of quinolone to growth of the mutant in the absence of quinolone was calculated after 12 hours of growth at 37° C., based on OD600 measurements. […]
# [1] = system: S. aureus RN4220 and RN4220 recA−; assay: Survival assay in the RN4220 background after exposure to Nor; type: cell-based; settings: RN4220 recA− vs RN4220, 3 hours of exposure to Nor 0.5 μg/mL
# Protocol: The survival ability of RN4220 and RN4220 recA^− following exposure to Nor was then tested as described in Example 2 for E. coli strains. The recA null mutant and parental strains (RN4220 recA^− and RN4220, respectively) were grown to early log phase in LB at 37° C. with shaking. At the 0 time point Nor was added to the cultures to a final concentration of 0.5 μg/mL, which is just below the MIC for wild type cells (RN4220). Samples of the cells were collected and washed in PBS at 0, 30, 90 and 180 minutes time points. The number of viable cells was determined by plating the cells on LB from each time point and counting colonies. The CFU counts were normalized based on the time 0 time point inoculum for each culture (i.e., the CFU count obtained from the 0 time point inoculum was taken to represent 100% survival) and the log % survival was plotted (FIG. 5).
# It was concluded that recA is essential for survival in the presence of quinolones (FIG. 5). As in E. coli, recA deletion causes 10,000× increase in quinolone sensitivity compared to the parental strain after 3 hours of exposure to Nor.
# [2] = system: recA promoter (prec::GFP) in MG1655; assay: Cell-based recA promoter::GFP reporter assay; set-up: species or system E. coli; settings: recA+ bacteria with reporter construct, in the presence of norfloxacin
# Source text: As discussed above, the recA promoter is induced when RecA becomes activated as a result of exposure to DNA damaging agents. The present Applicants hypothesized that exposure to a quinolone may have a similar effect on the recA promoter and that this effect could be exploited to develop a cell-based assay for inhibitors of RecA. A low copy reporter plasmid was used in which the recA promoter controls transcription of the mRNA encoding green fluorescent protein (GFP). The plasmid, referred to herein as prec::GFP, has been previously described (Ronen, 2002). See also Kuang, 2004. prec::GFP contains 2821707-2821893 of the E. coli MG1655 genome (numbering based on the sequenced E. coli genome as reported in Blattner, F. R., et al., Science, 277, pp. 1453-1474, 1997) cloned upstream of a promoterless GFPmut3 gene in a low copy pSC101 origin plasmid as described (Kalir, S., et al., Science, 292, pp. 2080-2083, 2001).
# The prec::GFP plasmid was introduced into MG1655 and MG1655 recA null strains and measured the fluorescence emitted by GFP in the presence or absence of quinolone as compared with background fluorescence detected from cultures of MG1655 lacking the plasmid. Briefly cells of these three strains were grown to early log phase in LB at 37° C. with shaking. […] After 60 minutes, fluorescence due to GFP expression from the reporter plasmid was measured using a spectrophotometer.
# E. coli MG1655 = assay: Hydroxyl radical formation (HPF dye, flow cytometry) in E. coli; type: cell-based; settings: E. coli; 250 ng/mL norfloxacin, 5 μg/mL ampicillin, 5 μg/mL kanamycin; bacteriostatic drugs; 3 hours after addition
# Protocol: (§1) Growth Conditions. In the experiments, the growth and survival of untreated exponential phase E. coli, or S. aureus, were compared to cultured treated with antibiotics at the above concentrations. E. coli cultures were treated with norfloxacin, kanamycin, ampicillin, rifamycin SV, chloramphenical, tetracycline, erythromycin, or spectinomycin, where appropriate, S. aureus cultures were treated with norfloxacin, vancomycin or chloramphenical, where appropriate.
# (§2) Hydroxyl radical and DNA damage sensor experiments using the flow cytometer. To monitor the occurrence of DNA damage, the engineered DNA damage sensor was used, which responds to auto-cleavage of LexA by activating expression of gfpmut3b. All the drug treatments and the no-drug controls were collected with both the kanamycin- and ampicillin-resistant version of the plasmid, with the exception of the ampicillin treatment (kanamycin plasmid only) and the kanamycin treatment (ampicillin plasmid only). All data were collected using a Becton Dickinson FACSCalibur flow cytometer (Becton Dickinson, San Jose, Calif.) with a 488-nm argon laser and a 515- to 545-nm emission filter (FL1) at low flow rate. The following PMT voltage settings were used: E00 (FSC), 360 (SSC) and 700 (FL1). To detect hydroxyl radical formation, the fluorescent reporter dye, 3′-(p-hydroxyphenyl) fluorescein (HPF, Invitrogen, Carlsbad, Calif.) was used at a concentration of 5 μM (1:1000) dilution), which is oxidized by hydroxyl radicals with high specificity. The following PMT voltage settings were used: E00 (FSC), 360 (SSC) and 825 (FL 1). Calibrite beads (Becton Dickinson) were used for instrument calibration.
# Flow data were processed and analyzed with MATLAB (MathWorks, Natick, Mass.) to construct figures. At least 50,000 cells were collected for each sample. In all experiments, cells were grown as described above. Samples were taken immediately before addition of drug (time zero), then every hour for 3 hours. At each timepoint, approximately […] were collected, washed once and resuspended in filtered 1×PBS, pH 7.2 (Fisher Scientific), and fluorescence was measured on the flow cytometer.
# In the present study, the Applicants chose to investigate whether hydroxyl radical formation also contributes to antibiotic-induced cell death in bacteria. Using the dye hydroxyphenyl fluorescein, HPF, which is oxidized by hydroxyl radicals with high specificity, hydroxyl radical formation was first observed over a range of hydrogen peroxide concentrations known to induce hydroxyl radicals through the reduction of hydrogen peroxide by ferrous iron. In this manner, it was possible to establish the scale of hydroxyl radical formation detectable using this dye via flow cytometry.
# [3] = system: wild-type strain of S. aureus; assay: Hydroxyl radical formation (HPF dye, flow cytometry) in S. aureus; type: cell-based; settings: norfloxacin, chloramphenical
# Protocol: For work with S. aureus, a Staphylococcus aureus subspecies aureus Rosenback strain was used that was obtained from ATCC (29740).
# as §1, §2
compound,measurement,setting,value
"CCn1cc(C(=O)O)c(=O)c2cc(F)c(N3CCNCC3)cc21 [Nor, norfloxacin]","bacterial growth, % of wild type levels",wild type E. coli; 0.05 μg/mL Nor (sublethal concentration),80%
same,concentration that fully inhibits growth of wild type E. coli (lethal concentration),wild type E. coli; wild type E. coli,0.1 µg/mL
same,increase in quinolone sensitivity caused by recA deletion compared to parental strain,[1],"10,000 ×"
same,transcription of the recA:GFP reporter gene,[2],increased transcription of the reporter gene
same,hydroxyl radical formation,E. coli MG1655,induce hydroxyl radical formation
same,hydroxyl radical formation,[3],increase in hydroxyl radical production
